Test results: ChEMBL document CHEMBL5030558, “Optimization and Evaluation of Novel Antifungal Agents for the Treatment of Fungal Infection” (J Med Chem, 2021)
Calls of active or inactive are those of the source. The calls are words filed in the database; no cut-off is given here.

Experiments:
Cryptococcus neoformans [1] = test: Effect on cell wall integrity in Cryptococcus neoformans XW252 cotransfected with mCherry-Nop1-Gfp mutant assessed as increase in nuclear translocation of Crz1 at 8 ug/ml after 90 mins by fluorescence microscopic analysis; format: functional; details: dose 8.0 µg/ml
Cytochrome P450 3A4 = Cytochrome P450 3A4 (Homo sapiens, UniProt P08684); test: Inhibition of CYP3A4 (unknown origin) relative to control; format: ADME
Cryptococcus neoformans [2] = test: Antifungal activity against Cryptococcus neoformans H99 assessed as reduction in fungal growth incubated for 72 hrs by CLSI based broth microdilution method; format: functional
Candida albicans [3] = test: Antifungal activity against Candida albicans ATCC SC5314 assessed as reduction in fungal growth incubated for 48 hrs by CLSI based broth microdilution method; format: functional
Aspergillus fumigatus [4] = test: Antifungal activity against Aspergillus fumigatus AF293 assessed as reduction in fungal growth incubated for 48 hrs by CLSI based broth microdilution method; format: functional
Cytochrome P450 2D6 = Cytochrome P450 2D6 (Homo sapiens, UniProt P10635); test: Inhibition of CYP2D6 (unknown origin) relative to control; format: ADME
Cytochrome P450 2C19 = Cytochrome P450 2C19 (Homo sapiens, UniProt P33261); test: Inhibition of CYP2C19 (unknown origin) relative to control; format: ADME
[5] = Stability in mouse liver microsomes assessed as parent compound remaining after 30 mins; format: ADME, Microsome; details: liver microsomes, read-out: Stability
[6] = Stability in human plasma assessed as parent compound remaining after 30 to 120 mins; format: ADME, cell-free; details: time 30-120 min
[7] = Stability in rat plasma assessed as parent compound remaining after 30 to 120 mins; format: ADME, cell-free; details: time 30-120 min
[8] = Effective permeability by PAMPA method; format: ADME; details: read-out: Peff
[9] = Stability in rat hepatocytes assessed as parent compound remaining incubated for 60 mins; format: ADME, cell-based, Hepatocyte; details: read-out: Stability
[10] = Stability in rabbit hepatocytes assessed as parent compound remaining incubated for 60 mins; format: ADME, cell-based, Oryctolagus cuniculus, Hepatocyte; details: read-out: Stability
[11] = Stability in minipig hepatocytes assessed as parent compound remaining incubated for 60 mins; format: ADME, cell-based, Sus scrofa domesticus, Liver; details: pig, read-out: Stability
[12] = Stability in human hepatocytes assessed as parent compound remaining incubated for 60 mins; format: ADME, cell-based, Hepatocyte; details: read-out: Stability
[13] = AUC(0 to t) in Sprague-Dawley rat at 2 mg/kg, iv; format: ADME, organism-based; parameters: dose 2 mg/kg; details: in vivo
[14] = AUC(0 to t) in Sprague-Dawley rat at 10 mg/kg, po; format: ADME, organism-based; parameters: dose 10 mg/kg; details: in vivo
[15] = Oral bioavailability in Sprague-Dawley rat at 10 mg/kg; format: ADME, organism-based; details: in vivo
[16] = Cmax in dog at 10 mg/kg, po; format: ADME, organism-based, Canis lupus familiaris; parameters: route oral, dose 10 mg/kg; details: in vivo
[17] = AUC(0 to t) in dog at 1 mg/kg, iv; format: ADME, organism-based, Canis lupus familiaris; parameters: dose 1 mg/kg; details: in vivo
[18] = Cmax in cynomolgus monkey at 10 mg/kg, iv; format: ADME, organism-based, Macaca fascicularis; parameters: route intravenous, dose 10 mg/kg; details: in vivo
[19] = AUC(0 to t) in cynomolgus monkey at 10 mg/kg, iv; format: ADME, organism-based, Macaca fascicularis; parameters: dose 10 mg/kg; details: in vivo
Cryptococcus neoformans [20] = test: Fungicidal activity against Cryptococcus neoformans H99 at 2 times of MIC after 12 hrs by time-kill kinetics assay; format: functional, organism-based
Trichophyton rubrum [21] = test: Fungicidal activity against Trichophyton rubrum KCCM60450 at 4 ug/ml by time-kill kinetics assay; format: functional, organism-based; details: dose 4.0 µg/ml
Trichophyton rubrum [22] = test: Fungicidal activity against Trichophyton rubrum KCCM60450 at 4 times after 2 hrs by time-kill kinetics assay; format: functional, organism-based
[23] = system: Trichophyton mentagrophytes; test: Fungicidal activity against Trichophyton mentagrophytes KCCM60449 at 4 times after 2 hrs by time-kill kinetics assay; format: functional, organism-based
Aspergillus fumigatus [24] = test: Synergistic antifungal activity against Aspergillus fumigatus AF293 assessed as FICI in presence of AmB after 48 hrs by checker board assay; format: functional, organism-based
Candida albicans [25] = test: Synergistic antifungal activity against Candida albicans ATCC SC5314 assessed as FICI in presence of ICZ after 48 hrs by checker board assay; format: functional, organism-based
Nakaseomyces glabratus [26] = test: Synergistic antifungal activity against Candida glabrata BG2 assessed as FICI in presence of AmB after 48 hrs by checker board assay; format: functional, organism-based
Nakaseomyces glabratus [27] = test: Synergistic antifungal activity against Candida glabrata BG2 assessed as FICI in presence of ICZ after 48 hrs by checker board assay; format: functional, organism-based
[Candida] auris = Synergistic antifungal activity against Candida auris B8841 assessed as FICI in presence of ICZ after 48 hrs by checker board assay; format: functional, organism-based; details: Candidozyma auris
Nakaseomyces glabratus [28] = test: Additive antifungal activity against Candida glabrata BG2 assessed as assessed as FICI in presence of CSP after 48 hrs by checker board assay; format: functional, organism-based
Candida albicans [29] = test: Induction of drug resistant in Candida albicans ATCC SC5314 assessed as increase in compound IC50 at 8 to 12 times MIC; format: functional, organism-based
Nakaseomyces glabratus [30] = test: Induction of drug resistant in Candida glabrata BG2 assessed as increase in compound IC50 at 8 to 12 times MIC; format: functional, organism-based
Candida albicans [31] = test: Induction of morphological changes in Candida albicans ATCC SC5314 assessed as reduction in cell wall thickness at 32 ug/ml incubated for 24 hrs by TEM analysis; format: functional, organism-based; details: dose 32.0 µg/ml
Candida albicans [32] = test: Induction of morphological changes in Candida albicans ATCC SC5314 assessed as appearance of detached cytoplasm at 32 ug/ml incubated for 24 hrs by TEM analysis; format: functional, organism-based; details: dose 32.0 µg/ml
[33] = Effect on cell wall integrity in Cryptococcus neoformans H99 assessed as activation of Mpk1 by measuring increase in Mpk1 phosphorylation ratio at 8 ug/ml after 60 mins by immunoblot analysis (reference value: 1); format: functional; details: dose 8 µg/ml, 1 h
[34] = Effect on cell wall integrity in Cryptococcus neoformans H99 assessed as activation of Mpk1 by measuring increase in Mpk1 phosphorylation ratio at 8 ug/ml after 90 mins by immunoblot analysis (reference value: 1); format: functional; details: dose 8 µg/ml, 1.5 h
[35] = Effect on cell wall integrity in Cryptococcus neoformans H99 assessed as increase in HXL1 activation ratio at 4 ug/ml after 2 hrs by immunoblot analysis (reference value: 1); format: functional; details: dose 4 µg/ml
[36] = Effect on cell wall integrity in Cryptococcus neoformans H99 assessed as increase in HXL1 activation ratio at 8 ug/ml after 2 hrs by immunoblot analysis (reference value: 1); format: functional; details: dose 8 µg/ml
Candida albicans [37] = test: In vivo antifungal activity against Candida albicans 90028 infected in BALB/c mouse assessed as appearance of soft epidermal stratum corneum measured upto 48 hrs post infection by histopathological analysis; format: functional, organism-based; details: time hrs <=48
Trichophyton rubrum [38] = test: Ex vivo antifungal activity against Trichophyton rubrum KCCM60450 infected in human nail assessed as reduction in ATP level at 0.5 % w/w after 24 hrs; format: functional; parameters: scale not given: the % may be the effect or the level left
Trichophyton rubrum [39] = test: Ex vivo antifungal activity against Trichophyton rubrum KCCM60450 infected in human nail assessed as reduction in ATP level at 5 % w/w after 24 hrs; format: functional; parameters: scale not given: the % may be the effect or the level left
[40] = Toxicity in Sprague-Dawley rat assessed as death at 500 to 1000 mg/kg, po measured after 14 days; format: organism-based; details: in vivo, 336 h, dose 500-1000 mg/kg, time 14 day
[41] = Toxicity in po dosed Sprague-Dawley rat assessed as lethal dose measured after 14 days; format: organism-based; details: in vivo, 336 h, time 14 day

Cytochrome P450 3A4, sequence (P08684 whole entry): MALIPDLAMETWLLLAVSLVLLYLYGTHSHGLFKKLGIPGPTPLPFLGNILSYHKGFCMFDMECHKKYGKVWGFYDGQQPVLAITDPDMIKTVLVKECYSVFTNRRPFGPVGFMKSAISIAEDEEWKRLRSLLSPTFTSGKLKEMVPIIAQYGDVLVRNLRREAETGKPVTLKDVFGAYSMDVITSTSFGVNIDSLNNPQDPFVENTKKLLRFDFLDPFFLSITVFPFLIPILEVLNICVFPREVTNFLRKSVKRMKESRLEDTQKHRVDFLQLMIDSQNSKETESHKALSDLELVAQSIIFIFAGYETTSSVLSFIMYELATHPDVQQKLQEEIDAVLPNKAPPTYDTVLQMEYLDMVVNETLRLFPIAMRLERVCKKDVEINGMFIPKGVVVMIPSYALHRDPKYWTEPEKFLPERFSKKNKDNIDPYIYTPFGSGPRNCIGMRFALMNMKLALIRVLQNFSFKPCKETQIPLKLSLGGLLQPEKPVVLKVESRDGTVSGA
Cytochrome P450 2C19, sequence (P33261 whole entry): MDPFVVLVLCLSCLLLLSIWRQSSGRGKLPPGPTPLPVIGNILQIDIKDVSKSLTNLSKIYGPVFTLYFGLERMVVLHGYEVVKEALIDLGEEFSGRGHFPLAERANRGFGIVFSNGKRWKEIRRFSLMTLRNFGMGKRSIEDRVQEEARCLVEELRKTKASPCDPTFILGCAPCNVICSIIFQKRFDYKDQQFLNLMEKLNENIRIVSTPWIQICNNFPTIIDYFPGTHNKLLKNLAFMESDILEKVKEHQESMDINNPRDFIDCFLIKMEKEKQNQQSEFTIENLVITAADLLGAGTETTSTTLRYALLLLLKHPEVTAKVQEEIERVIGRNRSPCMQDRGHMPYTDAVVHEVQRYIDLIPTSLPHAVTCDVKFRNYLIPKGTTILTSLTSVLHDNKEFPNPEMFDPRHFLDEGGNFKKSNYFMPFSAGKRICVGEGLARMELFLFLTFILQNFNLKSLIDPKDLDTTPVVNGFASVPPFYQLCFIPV
Cytochrome P450 2D6, sequence (P10635 whole entry): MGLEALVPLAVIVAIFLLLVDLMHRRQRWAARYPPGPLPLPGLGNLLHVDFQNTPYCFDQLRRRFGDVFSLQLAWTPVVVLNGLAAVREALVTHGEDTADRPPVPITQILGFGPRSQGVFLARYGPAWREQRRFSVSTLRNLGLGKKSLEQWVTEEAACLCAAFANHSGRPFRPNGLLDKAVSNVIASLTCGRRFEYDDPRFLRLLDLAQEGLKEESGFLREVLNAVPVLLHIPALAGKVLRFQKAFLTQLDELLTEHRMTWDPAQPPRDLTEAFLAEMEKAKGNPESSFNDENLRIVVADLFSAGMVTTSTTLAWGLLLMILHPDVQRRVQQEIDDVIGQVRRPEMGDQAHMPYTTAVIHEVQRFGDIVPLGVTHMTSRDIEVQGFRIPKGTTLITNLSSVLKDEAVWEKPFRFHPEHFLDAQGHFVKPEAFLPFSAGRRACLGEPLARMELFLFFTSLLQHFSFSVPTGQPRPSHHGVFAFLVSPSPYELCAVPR

## CCCC(N)C(=O)NCCc1ccc(-c2ccc(Cl)c(Cl)c2)cc1.Cl (racemic)
Cryptococcus neoformans [1]
  Activity: Active
Cytochrome P450 3A4
  inhibition (INH): 43.7%
Cryptococcus neoformans [2]
  MIC: 1 µg/mL
Candida albicans [3]
  MIC: 2 µg/mL
Aspergillus fumigatus [4]
  MIC: 4 µg/mL
Cytochrome P450 2D6
  inhibition (INH): 88.7%
Cytochrome P450 2C19
  inhibition (INH): 86%
[5]
  remaining at 0.5 h: 78.2%
[6]
  Stability: 97%
[7]
  Stability: 96.2%
[8]
  Papp: 58.9 ×10⁻⁶ cm/s
[9]
  remaining at 1 h: 36.2%
[10]
  remaining at 1 h: 64.6%
[11]
  remaining at 1 h: 49.6%
[12]
  remaining at 1 h: 79.1%
[13]
  AUC(0-t): 265 ng·h/mL
[14]
  AUC(0-t): 527 ng·h/mL
[15]
  bioavailability: 39.8%
[16]
  Cmax: 4390 ng/mL
[17]
  AUC(0-t): 2680 ng·h/mL
[18]
  Cmax: 1080 ng/mL
[19]
  AUC(0-t): 7150 ng·h/mL
Cryptococcus neoformans [20]
  Activity: Active
Trichophyton rubrum [21]
  Activity: Active
Trichophyton rubrum [22]
  Activity: Active
[23]
  Activity: Active
Aspergillus fumigatus [24]
  Activity: Active
Candida albicans [25]
  Activity: inactive
Nakaseomyces glabratus [26]
  Activity: Active
Nakaseomyces glabratus [27]
  Activity: inactive
[Candida] auris
  Activity: inactive
Nakaseomyces glabratus [28]
  Activity: Active
Candida albicans [29]
  Activity: inactive
Nakaseomyces glabratus [30]
  Activity: inactive
Candida albicans [31]
  Activity: Active
Candida albicans [32]
  Activity: Active
[33]
  Ratio: 3.62
[34]
  Ratio: 3.32
[35]
  Ratio: 1.12
[36]
  Ratio: 1.57
Candida albicans [37]
  Activity: Active
Trichophyton rubrum [38]
  Activity: 32.72%
Trichophyton rubrum [39]
  Activity: 19.92%
[40]
  Activity: Non-Toxic
[41]
  Activity: 2000 mg/kg
